Ends that are not written are not given here.
Assays:
Assay type in all cases: binding
GRIP1_1 PDZ = GRIP1_1 PDZ (Homo sapiens, UniProt Q9Y3R0); assay: Holdup assay; details: sheet PPI_convert; read-out: affinity to PDZ GRIP1_1 (converted)
GRIP2_4 PDZ = GRIP2_4 PDZ (Homo sapiens, UniProt Q9C0E4); assay: Holdup assay; details: composite holdup affinity; 0.00=below quantification threshold; read-out: COMP pKd (converted)
AHNAK1 PDZ = AHNAK1 PDZ (Homo sapiens, UniProt Q09666); assay: Holdup assay; details: composite holdup affinity; 0.00=below quantification threshold; read-out: COMP pKd (converted)
MAST2 PDZ = biological target: T1, MAST2 PDZ (Homo sapiens, UniProt Q6P0Q8); assay: biochemical; details: composite holdup affinity; 0.00=below quantification threshold; read-out: COMP pKd (converted)
T1 sequence (Q6P0Q8 1104-1192 limits assumed): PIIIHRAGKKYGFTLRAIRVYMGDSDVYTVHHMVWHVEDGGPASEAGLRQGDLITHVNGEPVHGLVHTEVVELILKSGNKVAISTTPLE

PDZRN4_1 PDZ = PDZRN4_1 PDZ (Homo sapiens, UniProt Q6ZMN7); assay: Holdup assay; details: composite holdup affinity; 0.00=below quantification threshold; read-out: COMP pKd (converted)
FRMPD2_3 PDZ = FRMPD2_3 PDZ (Homo sapiens, UniProt Q68DX3); assay: Holdup assay; details: composite holdup affinity; 0.00=below quantification threshold; read-out: COMP pKd (converted)
MAGI2_5 PDZ = MAGI2_5 PDZ (Homo sapiens, UniProt Q86UL8); assay: Holdup assay; details: composite holdup affinity; 0.00=below quantification threshold; read-out: COMP pKd (converted)
RHPN1 PDZ = RHPN1 PDZ (Homo sapiens, UniProt Q8TCX5); assay: Holdup assay; details: composite holdup affinity; 0.00=below quantification threshold; read-out: COMP pKd (converted)
SCRIB_3 PDZ = SCRIB_3 PDZ (Homo sapiens, UniProt Q14160); assay: Holdup assay; details: composite holdup affinity; 0.00=below quantification threshold; read-out: COMP pKd (converted)
MAGIX PDZ = MAGIX PDZ (Homo sapiens, UniProt Q9H6Y5); assay: Holdup assay; details: sheet PPI_convert; read-out: affinity to PDZ MAGIX (converted)
Text: Supplement 41467_2022_33018_MOESM4_ESM.xlsx, sheet "PPI_convert" | column: MAGIX

SCRIB_1 PDZ = SCRIB_1 PDZ (Homo sapiens, UniProt Q14160); assay: Holdup assay; details: composite holdup affinity; 0.00=below quantification threshold; read-out: COMP pKd (converted)
MAGI1_3 PDZ = MAGI1_3 PDZ (Homo sapiens, UniProt Q96QZ7); assay: Holdup assay; details: sheet PPI_convert; read-out: affinity to PDZ MAGI1_3 (converted)
DLG4_1 PDZ = DLG4_1 PDZ (Homo sapiens, UniProt P78352); assay: Holdup assay; details: composite holdup affinity; 0.00=below quantification threshold; read-out: COMP pKd (converted)
GRIP2_3 PDZ = GRIP2_3 PDZ (Homo sapiens, UniProt Q9C0E4); assay: Holdup assay; details: composite holdup affinity; 0.00=below quantification threshold; read-out: COMP pKd (converted)
TX1BP3 PDZ = biological target: T2, TX1BP3 PDZ (Homo sapiens, UniProt O14907); assay: Holdup assay; details: composite holdup affinity; 0.00=below quantification threshold; read-out: COMP pKd (converted)
T2 sequence (O14907 15-112 limits assumed): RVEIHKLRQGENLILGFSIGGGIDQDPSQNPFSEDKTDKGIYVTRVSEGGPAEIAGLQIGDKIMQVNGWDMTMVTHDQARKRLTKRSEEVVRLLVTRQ

FRMPD2_1 PDZ = FRMPD2_1 PDZ (Homo sapiens, UniProt Q68DX3); assay: Holdup assay; details: composite holdup affinity; 0.00=below quantification threshold; read-out: COMP pKd (converted)
LIN7B PDZ = LIN7B PDZ (Homo sapiens, UniProt Q9HAP6); assay: Holdup assay; details: composite holdup affinity; 0.00=below quantification threshold; read-out: COMP pKd (converted)
IL16_1 PDZ = IL16_1 PDZ (Homo sapiens, UniProt Q14005); assay: Holdup assay; details: composite holdup affinity; 0.00=below quantification threshold; read-out: COMP pKd (converted)
PDZRN4_2 PDZ = PDZRN4_2 PDZ (Homo sapiens, UniProt Q6ZMN7); assay: Holdup assay; details: sheet PPI_convert; read-out: affinity to PDZ PDZRN4_2 (converted)
PDZD2_4 PDZ = PDZD2_4 PDZ (Homo sapiens, UniProt O15018); assay: Holdup assay; details: sheet PPI_convert; read-out: affinity to PDZ PDZD2_4 (converted)
PDZD7_3 PDZ = PDZD7_3 PDZ (Homo sapiens, UniProt Q9H5P4); assay: Holdup assay; details: composite holdup affinity; 0.00=below quantification threshold; read-out: COMP pKd (converted)
LNX1_2 PDZ = LNX1_2 PDZ (Homo sapiens, UniProt Q8TBB1); assay: Holdup assay; details: composite holdup affinity; 0.00=below quantification threshold; read-out: COMP pKd (converted)
MAGI2_2 PDZ = MAGI2_2 PDZ (Homo sapiens, UniProt Q86UL8); assay: Holdup assay; details: composite holdup affinity; 0.00=below quantification threshold; read-out: COMP pKd (converted)
DLG1_1 PDZ = DLG1_1 PDZ (Homo sapiens, UniProt Q12959); assay: Holdup assay; details: composite holdup affinity; 0.00=below quantification threshold; read-out: COMP pKd (converted)
MAGI2_4 PDZ = MAGI2_4 PDZ (Homo sapiens, UniProt Q86UL8); assay: Holdup assay; details: composite holdup affinity; 0.00=below quantification threshold; read-out: COMP pKd (converted)
MPP1 PDZ = MPP1 PDZ (Homo sapiens, UniProt Q00013); assay: Holdup assay; details: sheet PPI_convert; read-out: affinity to PDZ MPP1 (converted)
FRMPD3 PDZ = FRMPD3 PDZ (Homo sapiens, UniProt Q5JV73); assay: Holdup assay; details: composite holdup affinity; 0.00=below quantification threshold; read-out: COMP pKd (converted)
GRIP2_7 PDZ = GRIP2_7 PDZ (Homo sapiens, UniProt Q9C0E4); assay: Holdup assay; details: composite holdup affinity; 0.00=below quantification threshold; read-out: COMP pKd (converted)
MAGI2_3 PDZ = MAGI2_3 PDZ (Homo sapiens, UniProt Q86UL8); assay: Holdup assay; details: composite holdup affinity; 0.00=below quantification threshold; read-out: COMP pKd (converted)
DLG1_3 PDZ = DLG1_3 PDZ (Homo sapiens, UniProt Q12959); assay: Holdup assay; details: composite holdup affinity; 0.00=below quantification threshold; read-out: COMP pKd (converted)
PARD3B_2 PDZ = PARD3B_2 PDZ (Homo sapiens, UniProt Q8TEW8); assay: Holdup assay; details: sheet PPI_convert; read-out: affinity to PDZ PARD3B_2 (converted)
PDZD2_3 PDZ = PDZD2_3 PDZ (Homo sapiens, UniProt O15018); assay: Holdup assay; details: sheet PPI_convert; read-out: affinity to PDZ PDZD2_3 (converted)
DLG5_2 PDZ = DLG5_2 PDZ (Homo sapiens, UniProt Q8TDM6); assay: Holdup assay; details: sheet PPI_convert; read-out: affinity to PDZ DLG5_2 (converted)
Inadl_5 PDZ = Inadl_5 PDZ (Homo sapiens, UniProt Q8NI35); assay: Holdup assay; details: composite holdup affinity; 0.00=below quantification threshold; read-out: COMP pKd (converted)
Sequence of Inadl_5 PDZ (Q8NI35 686-772 limits assumed): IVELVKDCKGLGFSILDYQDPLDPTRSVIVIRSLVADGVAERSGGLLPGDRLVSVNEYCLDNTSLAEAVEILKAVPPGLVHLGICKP

Sequence of MAGI2_3 PDZ (Q86UL8 605-683 limits assumed): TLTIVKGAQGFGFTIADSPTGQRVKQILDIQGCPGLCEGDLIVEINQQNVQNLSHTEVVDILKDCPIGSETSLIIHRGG
Sequence of SCRIB_3 PDZ (Q14160 1004-1093 limits assumed): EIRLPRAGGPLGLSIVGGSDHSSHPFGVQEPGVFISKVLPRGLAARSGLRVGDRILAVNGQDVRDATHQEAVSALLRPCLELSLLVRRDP
Sequence of SCRIB_1 PDZ (Q14160 728-815 limits assumed): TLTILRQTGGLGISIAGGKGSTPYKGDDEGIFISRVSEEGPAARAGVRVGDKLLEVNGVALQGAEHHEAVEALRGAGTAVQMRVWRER
Sequence of MAGI2_5 PDZ (Q86UL8 920-1010 limits assumed): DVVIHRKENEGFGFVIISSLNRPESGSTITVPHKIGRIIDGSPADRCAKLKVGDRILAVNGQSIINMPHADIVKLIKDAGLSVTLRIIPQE
Sequence of RHPN1 PDZ (Q8TCX5 513-592 limits assumed): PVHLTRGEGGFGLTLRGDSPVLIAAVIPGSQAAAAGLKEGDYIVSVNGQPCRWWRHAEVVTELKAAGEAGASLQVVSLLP
Sequence of PDZRN4_1 PDZ (Q6ZMN7 224-314 limits assumed): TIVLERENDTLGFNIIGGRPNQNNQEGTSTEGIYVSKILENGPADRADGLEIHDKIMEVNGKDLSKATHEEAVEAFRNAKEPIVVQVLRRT
Sequence of MPP1 PDZ (Q00013 71-152 limits assumed): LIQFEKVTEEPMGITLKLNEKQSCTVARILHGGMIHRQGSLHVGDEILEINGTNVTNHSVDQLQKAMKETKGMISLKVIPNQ
Sequence of MAGI2_4 PDZ (Q86UL8 778-860 limits assumed): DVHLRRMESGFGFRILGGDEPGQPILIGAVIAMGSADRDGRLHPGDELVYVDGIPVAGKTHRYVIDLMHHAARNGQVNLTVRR
Sequence of PDZD7_3 PDZ (Q9H5P4 862-934 limits assumed): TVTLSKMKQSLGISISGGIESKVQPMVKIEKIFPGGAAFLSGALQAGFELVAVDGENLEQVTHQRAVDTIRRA
Sequence of GRIP2_7 PDZ (Q9C0E4 941-1023 limits assumed): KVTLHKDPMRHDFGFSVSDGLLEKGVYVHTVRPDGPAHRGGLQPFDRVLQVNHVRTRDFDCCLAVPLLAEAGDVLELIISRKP
Sequence of MAGI2_2 PDZ (Q86UL8 426-510 limits assumed): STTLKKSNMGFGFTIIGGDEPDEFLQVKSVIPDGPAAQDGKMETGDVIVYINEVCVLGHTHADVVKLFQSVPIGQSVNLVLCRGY
Sequence of DLG4_1 PDZ (P78352 65-151): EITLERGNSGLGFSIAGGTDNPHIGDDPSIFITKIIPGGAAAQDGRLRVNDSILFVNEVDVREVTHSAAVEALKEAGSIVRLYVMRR
Sequence of PDZD2_4 PDZ (O15018 728-813 limits assumed): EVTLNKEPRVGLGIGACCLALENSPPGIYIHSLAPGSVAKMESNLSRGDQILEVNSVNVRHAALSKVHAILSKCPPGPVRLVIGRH
Sequence of IL16_1 PDZ (Q14005 216-302 limits assumed): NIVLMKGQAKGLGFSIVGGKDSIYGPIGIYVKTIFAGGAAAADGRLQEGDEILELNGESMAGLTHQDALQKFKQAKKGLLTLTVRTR
Sequence of FRMPD3 PDZ (Q5JV73 21-98 limits assumed): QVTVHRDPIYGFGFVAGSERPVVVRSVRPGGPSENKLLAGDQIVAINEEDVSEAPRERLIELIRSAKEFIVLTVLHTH
Sequence of LIN7B PDZ (Q9HAP6 93-175 limits assumed): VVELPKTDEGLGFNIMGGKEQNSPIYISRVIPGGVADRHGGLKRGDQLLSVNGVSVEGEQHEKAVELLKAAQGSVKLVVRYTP
Sequence of MAGI1_3 PDZ (Q96QZ7 643-721 limits assumed): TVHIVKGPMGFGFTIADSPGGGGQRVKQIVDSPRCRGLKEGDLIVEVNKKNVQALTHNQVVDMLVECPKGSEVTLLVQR
Sequence of AHNAK1 PDZ (Q09666 9-90 limits assumed): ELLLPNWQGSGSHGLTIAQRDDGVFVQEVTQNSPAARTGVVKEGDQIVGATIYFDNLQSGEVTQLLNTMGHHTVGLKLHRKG
Sequence of FRMPD2_1 PDZ (Q68DX3 775-861 limits assumed): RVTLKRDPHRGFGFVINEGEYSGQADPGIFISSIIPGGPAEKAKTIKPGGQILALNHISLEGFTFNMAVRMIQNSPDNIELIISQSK
Sequence of GRIP2_4 PDZ (Q9C0E4 456-545 limits assumed): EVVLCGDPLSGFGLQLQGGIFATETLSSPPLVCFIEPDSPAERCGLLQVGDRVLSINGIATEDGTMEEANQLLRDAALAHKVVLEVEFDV
Sequence of FRMPD2_3 PDZ (Q68DX3 1079-1167 limits assumed): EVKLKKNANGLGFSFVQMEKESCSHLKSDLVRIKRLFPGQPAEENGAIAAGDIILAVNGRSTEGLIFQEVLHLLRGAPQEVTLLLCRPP
Sequence of MAGIX PDZ (Q9H6Y5 125-209): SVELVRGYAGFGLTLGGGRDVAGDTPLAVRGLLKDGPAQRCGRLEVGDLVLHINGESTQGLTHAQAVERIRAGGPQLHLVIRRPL
Sequence of PDZD2_3 PDZ (O15018 586-672 limits assumed): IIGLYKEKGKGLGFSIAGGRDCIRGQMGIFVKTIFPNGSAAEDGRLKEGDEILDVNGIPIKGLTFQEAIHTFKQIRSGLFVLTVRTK
Sequence of PDZRN4_2 PDZ (Q6ZMN7 402-486 limits assumed): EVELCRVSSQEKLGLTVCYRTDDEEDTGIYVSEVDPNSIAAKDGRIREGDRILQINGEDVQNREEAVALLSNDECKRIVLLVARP
Sequence of PARD3B_2 PDZ (Q8TEW8 383-468 limits assumed): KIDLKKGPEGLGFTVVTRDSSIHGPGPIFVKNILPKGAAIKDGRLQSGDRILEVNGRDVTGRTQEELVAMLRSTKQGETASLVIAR
Sequence of LNX1_2 PDZ (Q8TBB1 381-464 limits assumed): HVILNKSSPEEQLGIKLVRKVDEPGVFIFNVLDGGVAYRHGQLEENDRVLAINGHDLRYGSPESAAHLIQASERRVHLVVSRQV
Sequence of DLG5_2 PDZ (Q8TDM6 705-796 limits assumed): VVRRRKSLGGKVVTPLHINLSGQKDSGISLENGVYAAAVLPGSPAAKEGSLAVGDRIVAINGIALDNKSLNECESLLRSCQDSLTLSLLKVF
Sequence of GRIP1_1 PDZ (Q9Y3R0 53-136 limits assumed): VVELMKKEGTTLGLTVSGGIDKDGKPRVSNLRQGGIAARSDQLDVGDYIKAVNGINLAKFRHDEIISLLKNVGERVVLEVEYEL
Sequence of GRIP2_3 PDZ (Q9C0E4 248-332 limits assumed): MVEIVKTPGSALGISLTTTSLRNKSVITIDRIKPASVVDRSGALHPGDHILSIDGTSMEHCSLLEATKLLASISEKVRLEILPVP

Sequence | Kd (MAST2 PDZ) | Kd (PDZRN4_1 PDZ) | Kd (MAGI2_5 PDZ) | Kd (RHPN1 PDZ) | Kd (SCRIB_3 PDZ) | Kd (SCRIB_1 PDZ) | Kd (DLG4_1 PDZ) | Kd (TX1BP3 PDZ) | Kd (PDZD2_4 PDZ) | Kd (PDZD7_3 PDZ) | Kd (MAGI2_2 PDZ) | Kd (DLG1_1 PDZ) | Kd (MAGI2_4 PDZ) | Kd (MPP1 PDZ) | Kd (GRIP2_7 PDZ) | Kd (MAGI2_3 PDZ) | Kd (DLG1_3 PDZ) | further results
RHTTSTETAV [HPV30-E6] | 3.02 µM | 29.5 µM | 49 µM | 83.2 µM | 9.55 µM | 17.4 µM | 12 µM | 22.4 µM | 16.6 µM | 79.4 µM | 9.12 µM | 11.7 µM | 85.1 µM | 6.76 µM | 145 µM | 26.9 µM | 40.7 µM | Kd (GRIP1_1 PDZ): 25.7 µM; Kd (GRIP2_4 PDZ): 219 µM; Kd (AHNAK1 PDZ): 191 µM; Kd (FRMPD2_3 PDZ): 135 µM; Kd (MAGIX PDZ): 4.47 µM; Kd (MAGI1_3 PDZ): 19.1 µM; Kd (GRIP2_3 PDZ): 245 µM; Kd (FRMPD2_1 PDZ): 72.4 µM; Kd (LIN7B PDZ): 195 µM; Kd (IL16_1 PDZ): 83.2 µM; Kd (PDZRN4_2 PDZ): 33.1 µM; Kd (LNX1_2 PDZ): 214 µM; Kd (FRMPD3 PDZ): 174 µM
RTRQRNETQV [HPV51-E6] | 5.37 µM | 69.2 µM | 75.9 µM | 200 µM | 67.6 µM | 27.5 µM | 12.6 µM | 74.1 µM | 45.7 µM | 132 µM | 0.219 µM | 16.6 µM | 39.8 µM | 1.55 µM | 331 µM | 95.5 µM | 28.8 µM | Kd (PARD3B_2 PDZ): 40.7 µM; Kd (PDZD2_3 PDZ): 60.3 µM; Kd (DLG5_2 PDZ): 23.4 µM; Kd (Inadl_5 PDZ): 398 µM
